What is called logP is a log measure of how a compound divides between an organic and an aqueous phase. A word on the logD: it is the decadic logarithm of the distribution of all forms, ionised or not, between an organic phase and buffer at a given pH.

The first data set is described as follows: method code SF, from Hansch, C. & Leo, A. (1987). Log P database [Dataset]. Pomona College Medicinal Chemistry Project.
Conditions: not given
Regarding `CCSCC1=Nc2cc(Cl)ccc2S(=O)(=O)N1`, the logP worked out at 2.26.

`S=C=Nc1ccccc1` came in with a logP of 3.25.

In the case of `OC(c1nc2cc(Cl)ccc2[nH]1)C(O)c1nc2cc(Cl)ccc2[nH]1` (configuration not stated), the logP is 1.21.

`COP(=S)(NC(C)C)Oc1ccc(Cl)cc1Cl` (configuration not stated) had a log partition coefficient (logP) of 4.3.

`BrCCBr` yielded a logP of 1.96.

Molecule `COC1C=COC2(C)Oc3c(C)c(O)c4c(O)c(c(/C=N\N5CCCCCCCCCC5)c(O)c4c3C2=O)NC(=O)/C(C)=C\C=C/C(C)C(O)C(C)C(O)C(C)C(OC(C)=O)C1C` (configuration not stated) returned a logP of 4.05.

Take `NC(=O)c1cccc(C(N)=O)c1`: the logP was -0.21.

Take `CC(C)(C)CC1=Nc2ccc(Cl)cc2S(=O)(=O)N1`: the logP came out at 2.71.

On to `CCNC(=S)Nc1ccccc1`, for which the logP came out at 1.42.

Take `Cc1n[nH]cc1[N+](=O)[O-]`: the logP is 0.19.

`O=c1cn[nH]c2ccccc12` gave a lipophilicity (logP) of 0.82.

`O=c1[nH]cc(I)c(=O)[nH]1`: the lipophilicity (logP) is 0.04.

For `OC[C@@H](O)[C@@H](O)CO`, the logP is -2.29.

For the molecule `COP(=O)(OC)Oc1ccccc1`, the logP was determined as 1.22.

The molecule `CCCCCCC1OC(=O)c2cc(N)ccc21` (configuration not stated) registered a logP of 3.65.

With `CNC(=O)N(C)c1ccccc1`, the logP came out at 1.02.

In turn, `O=C1OCc2ccccc21` yielded a logP of 0.8.

Molecule `COc1cccc2c1C(=O)c1c(O)c3c(c(O)c1C2=O)C[C@@](O)(C(=O)CO)C[C@@H]3O` registered a logP of 2.74.

Turning to `CC(C)c1ccccc1OCC(=O)O`, the logP turned out to be 2.84.

On to `COc1cc(Cl)cc(Cl)c1`, for which the logP was 3.74.

Molecule `CN(C)c1cnccn1` gave a logP of 0.96.

Molecule `CC1=Nc2ccc([N+](=O)[O-])cc2S(=O)(=O)N1` came in with a logP of 0.65.

`CC1OC(=O)c2ccccc21` (configuration not stated) displayed a logP of 1.41.

Consider `CNC(=O)NCCSCc1nc[nH]c1C`, for which the logP is -0.06.

Molecule `CN1C(=O)c2ccccc2C1=O` showed a logP of 1.31.

`CC(=O)Oc1ccccc1F` gave a lipophilicity (logP) of 1.76.

Consider `CCOC(=O)c1ccccc1N`, for which the logP came to 2.57.

Consider `CCOc1ccccc1`, for which the logP turned out to be 2.51.

Molecule `CC(C)(C)N` registered a logP of 0.4.

Regarding `ClC(Cl)(Cl)c1ccc(C(Cl)(Cl)Cl)cc1`, the lipophilicity (logP) was found to be 4.62.

Take `COc1ccc(-c2nc3cnccc3[nH]2)c(OC)c1`: the logP was 2.56.

`Cn1c(=O)ccc2ccccc21` gave a logP of 1.45.

In turn, `CNP(=O)(OC)Oc1ccc(Cl)cc1` (configuration not stated) came in with a logP of 1.85.

The molecule `CCOP(=S)(OCC)SCS(=O)(=O)C(C)(C)C` gave a logP of 2.48.

`NC(=O)COc1ccccc1` yielded a logP of 0.76.

`CC1(C)OC(=O)c2ccccc21` came in with a log partition coefficient (logP) of 1.73.

In the case of `CCOC(=O)C(=Cc1cccc(OC)c1)C(=O)OCC`, the log partition coefficient (logP) was determined as 3.18.

`Nc1nccs1` displayed a lipophilicity (logP) of 0.38.

In turn, `CC(=O)Oc1ccccc1Cl` returned a logP of 2.18.

For `CCOP(=S)(Oc1ccc(C#N)cc1)c1ccccc1` (configuration not stated), the lipophilicity (logP) was 4.29.

`O=[N+]([O-])c1ccc(OCCn2ccnn2)cc1` showed a logP of 1.19.

With `CC(C)(O)C(Cl)(Cl)Cl`, the logP is 2.03.

Turning to `O=C(c1ccncc1)c1ccc(O)cc1`, the logP was found to be 1.37.

Regarding `COc1cc(OC)c(OC)cc1CC(C)N` (configuration not stated), the logP was determined as 1.74.

`CN(C)C(=O)CCc1ccco1` had a logP of 0.62.

The molecule `O=C1CCCCC1` had a logP of 0.81.

Take `O[C@@H]1CCCC[C@H]1O`: the logP was 0.08.

`CC(=O)c1csc2ccccc12` yielded a logP of 2.78.

Turning to `CCCCS`, the logP was determined as 2.28.

In the case of `Cn1ccccc1=O`, the logP is -0.23.

In turn, `Cn1ncc2cc([N+](=O)[O-])cc([N+](=O)[O-])c21` came in with a logP of 1.63.

Turning to `CC(C)(C)C(=O)Nc1ccccc1`, the log partition coefficient (logP) amounted to 1.99.

Take `COC(=O)c1ccccc1C`: the logP was 2.75.

On to `CCC(C)NC(=O)C(=Cc1ccccc1)OC` (configuration not stated), for which the logP came to 2.86.

For the molecule `O=C(Nc1ccccc1)NC1CC(O)C(CO)OC1O` (configuration not stated), the logP was -0.61.

`CS(=O)(=O)Nc1ccccc1`: the logP was 0.95.

The molecule `Cc1ccc(Cc2c[nH]c(NCCCCc3ccc(Br)cc3C)nc2=O)cn1` displayed a lipophilicity (logP) of 3.61.

`CN(C)CCC1CN(C)C(=S)c2cccnc2O1` (configuration not stated): the logP worked out at 1.08.

Consider `CC(=O)c1cccc(OC(=O)N(C)C)c1`, for which the logP stood at 1.18.

The molecule `COc1ccccc1C=CC(=O)OCCOc1ccc(C=O)cc1OC` returned a logP of 3.65.

For `NC(=O)/C=C/c1ccccc1`, the logP amounted to 1.42.

Turning to `c1cocn1`, the logP is 0.12.

`CCOc1ccc(OC(C)=O)cc1` displayed a lipophilicity (logP) of 1.95.

As to `Cc1ccc(N)nc1`, the logP is 1.02.

The molecule `CC(=O)OCC1CCC(NC(=O)N(CCCl)N=O)CC1` (configuration not stated) displayed a logP of 2.24.

`OCCCCCl` came in with a log partition coefficient (logP) of 0.85.

Turning to `Cc1c(-c2ccccc2)oc2ccccc2c1=O`, the logP was 3.92.

In the case of `c1ccc2c(c1)nnc1ccccc12`, the logP was 2.71.

For the molecule `CCC1(c2ccccc2)CCC(=O)NC1=O` (configuration not stated), the log partition coefficient (logP) is 1.9.

As to `CCOC(=O)CON=Cc1ccc(OCCOC(=O)CC)c(OC)c1`, the log partition coefficient (logP) turned out to be 2.39.

`O=C1c2ccccc2C(=O)N1CCCCBr` displayed a logP of 2.96.

The molecule `NC(=O)c1cccc(OC(=O)CNC(=O)c2ccccc2)c1` yielded a logP of 1.2.

In the case of `C#CCO`, the logP is -0.38.

Staying with this data set, now noted: pH 1.0.
Molecule `O=C(O)c1ccccc1-c1ccccc1C(=O)O` came in with a logD of 2.07.

`O=C(O)c1ccccc1-c1ccccc1` came in with a logD of 2.89.

On to `Oc1cc(-c2ccccc2)on1`, for which the logD is 2.55.

`CC(=O)c1ccccc1C(=O)O` returned a logD of 0.81.

Still in this data set, the particulars now being: pH 2.0.
Regarding `O=C(O)c1nccc2ccccc12`, the logD is -0.53.

The data set is the same for the next values; noted with them: pH 3.0.
As to `CC(=O)OCC1=C(C(=O)O)N2C(=O)C(NC(=O)COc3ccccc3)C2SC1` (configuration not stated), the logD stood at 0.26.

Staying with this data set, now noted: pH 7.0.
As to `NC(=O)c1cccnc1N`, the logD came out at 0.88.

In the case of `CC(=O)c1cccc(C(C)=O)c1`, the logD worked out at 1.43.

Molecule `CCOC(=O)c1cccc([N+](=O)[O-])c1` gave a logD of 2.35.

As for `CC(=O)c1cccc(F)c1`, the log distribution coefficient (logD) worked out at 1.77.

The same data set, now with this note: pH 7.4.
In turn, `CNN=CCCc1ccccc1` showed a logD of 1.

Consider `O=c1cn[nH]c(=O)[nH]1`, for which the pH-dependent lipophilicity (logD) is -1.37.

Regarding `Nc1nc(S)c2ncn(C3CC(O)C(CO)O3)c2n1` (configuration not stated), the logD is -0.56.

Still in this data set, the particulars now being: pH 11.0.
`c1cncc([C@@H]2CCCN2)c1` gave a logD of 0.17.

Take `CCN(CC)Cc1cccnc1`: the logD came to 1.01.

As to `NCc1cccnc1`, the logD is -0.1.

The molecule `CN1CCCC[C@H]1c1cccnc1` displayed a pH-dependent lipophilicity (logD) of 0.96.

Still in this data set, the particulars now being: pH 12.0.
`CCCC1CC(C(=O)NC(C(C)Cl)C2OC(SC)C(O)C(O)C2O)N(CC)C1` (configuration not stated) returned a logD of 2.51.

The molecule `CCCCC1CC(C(=O)NC(C(C)O)C2OC(SC)C(O)C(O)C2O)N(CC)C1` (configuration not stated) registered a logD of 1.76.

The data set is the same for the next values; noted with them: pH 12.3.
The molecule `CCC[C@H]1CN[C@H](C(=O)N[C@@H]([C@H]2O[C@H](SC)[C@H](O)[C@@H](O)[C@H]2O)[C@H](C)Cl)C1` registered a logD of 1.69.

The data set is the same for the next values; noted with them: pH 13.0.
As for `Nc1cn[nH]c1`, the logD is -1.09.

As for `CC1(C)N=C(N)N=C(N)N1c1ccc(Br)cc1`, the logD worked out at 1.09.

As to `CC1(C)N=C(N)N=C(N)N1c1ccc(F)cc1`, the logD came to 0.37.

For the molecule `CCCCN(CCCC)CC(O)c1ccccc1` (configuration not stated), the logD came to 3.16.

The values above are taken from the SangsterLogP compilation.
